Results on nine molecules are retold here after patent US10004701B2, “Methods and compositions for treating infection” (UNIVERSITY OF ROCHESTER, priority 2012, dated 2018).

Holding throughout (experiment): AK assay 384-well format, Prestwick library screening
One test deals with K. pneumoniae. The class given is cell-based, Klebsiella pneumoniae. The note with it: 50 μM final drug concentration; for fold induction at 50 µM: Klebsiella pneumoniae, 3 h, cutoff for positive-scoring molecules 3-fold increase; for AK-based Prestwick library screening result, K. pneumoniae (fold increase in extracellular AK activity): positive cutoff 3-fold increase.
Another test concerns E. cloacae. The class given is cell-based, Enterobacter cloacae. Conditions: 50 μM final drug concentration; for fold induction at 50 µM: Enterobacter cloacae, 3 h, cutoff for positive-scoring molecules 3-fold increase; for AK-based Prestwick library screening result, E. cloacae (fold increase in extracellular AK activity): positive cutoff 3-fold increase.
For another test, the system named is P. aeruginosa. The format is cell-based, Pseudomonas aeruginosa. Conditions: 50 μM final drug concentration; for fold induction at 50 µM: Pseudomonas aeruginosa, 3 h, cutoff for positive-scoring molecules 3-fold increase; for AK-based Prestwick library screening result, P. aeruginosa (fold increase in extracellular AK activity): positive cutoff 3-fold increase.

Test [1] deals with A. baumannii strain 98-37-09. The format is cell-based, Acinetobacter baumannii. Conditions: 50 μM final drug concentration; for fold induction at 50 µM: Acinetobacter baumannii, 983709, 3 h, cutoff for positive-scoring molecules 3-fold increase; for AK-based Prestwick library screening result, A. baumannii (fold increase in extracellular AK activity): positive cutoff 3-fold increase.

A further test concerns E. coli. The class given is cell-based, Escherichia coli. The note with it: 50 μM final drug concentration; for fold induction at 50 µM: Escherichia coli, 3 h, cutoff for positive-scoring molecules 3-fold increase; for AK-based Prestwick library screening result, E. coli (fold increase in extracellular AK activity): positive cutoff 3-fold increase.
A further test deals with E. faecium. The class given is cell-based, Enterococcus faecium. Conditions: 50 μM final drug concentration; for fold induction at 50 µM: Enterococcus faecium, 3 h, cutoff for positive-scoring molecules 3-fold increase; for AK-based Prestwick library screening result, E. faecium (fold increase in extracellular AK activity): positive cutoff 3-fold increase.
Test [2] relates to S. aureus strain USA300-0114. The class given is cell-based, Staphylococcus aureus. Conditions: 50 μM final drug concentration; for fold induction at 50 µM: Staphylococcus aureus, USA300, 3 h, cutoff for positive-scoring molecules 3-fold increase; for AK-based Prestwick library screening result, S. aureus (fold increase in extracellular AK activity): positive cutoff 3-fold increase.

Setting [3] is: planktonic K. pneumoniae, read-out: AK-based Prestwick Library Screening Results, K. pneumoniae (increase in extracellular AK activity).
The mark [4] stands for this setting: planktonic E. cloacae, read-out: AK-based Prestwick Library Screening Results, E. cloacae (increase in extracellular AK activity).
Where [5] appears, read: planktonic P. aeruginosa, read-out: AK-based Prestwick Library Screening Results, P. aeruginosa (increase in extracellular AK activity).
Where [6] appears, read: planktonic A. baumannii, read-out: AK-based Prestwick Library Screening Results, A. baumannii (increase in extracellular AK activity).
Setting [7] is: planktonic E. coli, read-out: AK-based Prestwick Library Screening Results, E. coli (increase in extracellular AK activity).
Where [8] appears, read: planktonic E. faecium, read-out: AK-based Prestwick Library Screening Results, E. faecium (increase in extracellular AK activity).
Where [9] appears, read: planktonic S. aureus, read-out: AK-based Prestwick Library Screening Results, S. aureus (increase in extracellular AK activity).
The mark [10] stands for this setting: 384-well format, read-out: AK-based Prestwick Library Screening Results, K. pneumoniae (increase in extracellular AK activity).
Setting [11] is: 384-well format, read-out: AK-based Prestwick Library Screening Results, E. cloacae (increase in extracellular AK activity).
[12] abbreviates: 384-well format, read-out: AK-based Prestwick Library Screening Results, P. aeruginosa (increase in extracellular AK activity).
Setting [13] is: 384-well format, read-out: AK-based Prestwick Library Screening Results, A. baumannii (increase in extracellular AK activity).
Setting [14] is: 384-well format, read-out: AK-based Prestwick Library Screening Results, E. coli (increase in extracellular AK activity).
[15] abbreviates: 384-well format, read-out: AK-based Prestwick Library Screening Results, E. faecium (increase in extracellular AK activity).
Setting [16] is: 384-well format, read-out: AK-based Prestwick Library Screening Results, S. aureus (increase in extracellular AK activity).

Counter-ions that a name gives are not always drawn. Like-named read-outs stand apart in the source and are kept apart here.

As to `CC(C)N1CCN(c2ccc(OCC3COC(Cn4cncn4)(c4ccc(Cl)cc4Cl)O3)cc2)CC1` (stereo not drawn) [Terconazole], the fold induction at 50 µM in the test on K. pneumoniae (setting [3]) was 0.7; with E. cloacae (setting [4]), 0.9; in the test with P. aeruginosa (setting [5]) it was 0.8; in test [1] (setting [6]), 0.8; in the test on E. coli (setting [7]) it was 0.9; in the test on E. faecium (setting [8]), 1. Further, the fold induction at 50 µM in test [2] (setting [9]) is 0.6.

`CC1Cc2ccccc2N1NC(=O)c1ccc(Cl)c(S(N)(=O)=O)c1` (stereo not drawn) [Indapamide]: the fold induction at 50 µM was 1.1 with K. pneumoniae (planktonic K. pneumoniae, 384-well, read-out: AK-based Prestwick Library Screening Results: K. pneumoniae (increase in extracellular AK activity)); 1.7 in the test on E. cloacae (planktonic E. cloacae, 384-well, read-out: AK-based Prestwick Library Screening Results: E. cloacae (increase in extracellular AK activity)); 1.1 in the test with P. aeruginosa (planktonic P. aeruginosa, 384-well, read-out: AK-based Prestwick Library Screening Results: P. aeruginosa (increase in extracellular AK activity)); 1 in test [1] (planktonic A. baumannii, 384-well, read-out: AK-based Prestwick Library Screening Results: A. baumannii (increase in extracellular AK activity)); 1.1 with E. coli (planktonic E. coli, 384-well, read-out: AK-based Prestwick Library Screening Results: E. coli (increase in extracellular AK activity)); 1.1 in the test with E. faecium (planktonic E. faecium, 384-well, read-out: AK-based Prestwick Library Screening Results: E. faecium (increase in extracellular AK activity)). In addition, the fold induction at 50 µM in test [2] (planktonic S. aureus, 384-well, read-out: AK-based Prestwick Library Screening Results: S. aureus (increase in extracellular AK activity)) came out at 1.

Regarding `CC[C@@H](C)C(=O)O[C@H]1[C@H](O)[C@H]2[C@@H](CN3C[C@@H](C)CC[C@H]3[C@@]2(C)O)[C@@H]2C[C@]34O[C@]5(O)[C@@H](OC(=O)[C@@](C)(O)CC)CC[C@@]3(C)[C@@H]5[C@@H](OC(C)=O)[C@@H](OC(C)=O)[C@H]4[C@@]21O` [Protoveratrine A], the “AK-based Prestwick Library Screening Results, K. pneumoniae (fold increase in extracellular AK activity)” value in the test with K. pneumoniae (planktonic, […]) came to 1.2. In the test with E. cloacae (planktonic, […]), the “AK-based Prestwick Library Screening Results, E. cloacae (fold increase in extracellular AK activity)” value is reported as 1.3. Further, the “AK-based Prestwick Library Screening Results, P. aeruginosa (fold increase in extracellular AK activity)” value in the test on P. aeruginosa (planktonic, […]) is listed as 1.1. Moreover, the “AK-based Prestwick Library Screening Results, A. baumannii (fold increase in extracellular AK activity)” value in test [1] (planktonic, […]) turned out to be 1.2. In addition, the “AK-based Prestwick Library Screening Results, E. coli (fold increase in extracellular AK activity)” value in the test on E. coli (planktonic, […]) was determined as 1.1. The “AK-based Prestwick Library Screening Results, E. faecium (fold increase in extracellular AK activity)” value with E. faecium (planktonic, […]) is 1.0. Also, the “AK-based Prestwick Library Screening Results, S. aureus (fold increase in extracellular AK activity)” value in test [2] (planktonic, […]) was determined as 1.2.

In the case of Verteporfin, the “AK-based Prestwick library screening result, K. pneumoniae (fold increase in extracellular AK activity)” value with K. pneumoniae (planktonic K. pneumoniae) is on record as 0.8. Also, in the test with E. cloacae (planktonic E. cloacae), the “AK-based Prestwick library screening result, E. cloacae (fold increase in extracellular AK activity)” value is on record as 1.6. For the same molecule, the “AK-based Prestwick library screening result, P. aeruginosa (fold increase in extracellular AK activity)” value in the test with P. aeruginosa (planktonic P. aeruginosa) was 0.8. Further, the “AK-based Prestwick library screening result, A. baumannii (fold increase in extracellular AK activity)” value in test [1] (planktonic A. baumannii) stood at 0.9. Further, the “AK-based Prestwick library screening result, E. coli (fold increase in extracellular AK activity)” value in the test on E. coli (planktonic E. coli) worked out at 0.7. In addition, in the test on E. faecium (planktonic E. faecium), the “AK-based Prestwick library screening result, E. faecium (fold increase in extracellular AK activity)” value is reported as 1.2. Further, the “AK-based Prestwick library screening result, S. aureus (fold increase in extracellular AK activity)” value in test [2] (planktonic S. aureus) is recorded as 0.5.

As for `CN(C)CCC=C1c2ccccc2C=Cc2ccccc21` [Cyclobenzaprine hydrochloride], the fold induction at 50 µM in the test with K. pneumoniae (setting [3]) stood at 0.9; in the test on E. cloacae (setting [4]) it was 1.2; in the test with P. aeruginosa (setting [5]), 1.1; in test [1] (setting [6]), 1.2; in the test on E. coli (setting [7]), 1.3; in the test with E. faecium (setting [8]) it was 1. Further, the fold induction at 50 µM in test [2] (setting [9]) was found to be 1.

As for `Cn1c(=O)c2c(ncn2CC(O)CO)n(C)c1=O` (stereo not drawn) [Diprophylline], the fold induction at 50 µM in the test with K. pneumoniae (setting [10]) was 0.6; with E. cloacae (setting [11]) it was 1.1; in the test on P. aeruginosa (setting [12]), 0.7; in test [1] (setting [13]), 0.8; with E. coli (setting [14]), 1; in the test with E. faecium (setting [15]), 0.9. Also, the fold induction at 50 µM in test [2] (setting [16]) was determined as 0.7.

Turning to `CN(C)[C@@H]1C(O)=C(C(N)=O)C(=O)[C@@]2(O)C(O)=C3C(=O)c4c(O)ccc(Cl)c4[C@@H](O)[C@H]3C[C@@H]12` [Demeclocycline hydrochloride], the fold induction at 50 µM in the test on K. pneumoniae (planktonic, read-out: AK-based Prestwick Library Screening Results, K. pneumoniae (fold increase in extracellular AK activity)) worked out at 0.2; in the test with E. cloacae (planktonic, read-out: AK-based Prestwick Library Screening Results, E. cloacae (fold increase in extracellular AK activity)) it was 1.3; with P. aeruginosa (planktonic, read-out: AK-based Prestwick Library Screening Results, P. aeruginosa (fold increase in extracellular AK activity)), 0.4; in test [1] (planktonic, read-out: AK-based Prestwick Library Screening Results, A. baumannii (fold increase in extracellular AK activity)) it was 3.4; in the test on E. coli (planktonic, read-out: AK-based Prestwick Library Screening Results, E. coli (fold increase in extracellular AK activity)), 0.5; with E. faecium (planktonic, read-out: AK-based Prestwick Library Screening Results, E. faecium (fold increase in extracellular AK activity)) it was 0.9. The fold induction at 50 µM in test [2] (planktonic, read-out: AK-based Prestwick Library Screening Results, S. aureus (fold increase in extracellular AK activity)) came out at 7.1.

Regarding `CCC1(C)CC(=O)NC1=O` (stereo not drawn) [Ethosuximide], the fold induction at 50 µM in the test with K. pneumoniae (setting [10]) is 0.6; in the test on E. cloacae (setting [11]), 0.6; in the test on P. aeruginosa (setting [12]), 0.5; in test [1] (setting [13]), 0.5; in the test on E. coli (setting [14]), 0.6; with E. faecium (setting [15]) it was 0.9. For the same molecule, the fold induction at 50 µM in test [2] (setting [16]) was 0.5.

With `CC(C)NC[C@@H](O)COc1cccc2ccccc12.Cl` [(R)-Propranolol hydrochloride], in the test on K. pneumoniae (planktonic K. pneumoniae), the “AK-based Prestwick library screening result, K. pneumoniae (fold increase in extracellular AK activity)” value is reported as 0.7. For the same molecule, the “AK-based Prestwick library screening result, E. cloacae (fold increase in extracellular AK activity)” value in the test on E. cloacae (planktonic E. cloacae) was found to be 17.3. In addition, in the test with P. aeruginosa (planktonic P. aeruginosa), the “AK-based Prestwick library screening result, P. aeruginosa (fold increase in extracellular AK activity)” value is reported as 0.8. Moreover, the “AK-based Prestwick library screening result, A. baumannii (fold increase in extracellular AK activity)” value in test [1] (planktonic A. baumannii) is listed as 0.9. Moreover, the “AK-based Prestwick library screening result, E. coli (fold increase in extracellular AK activity)” value in the test on E. coli (planktonic E. coli) came out at 0.8. For the same molecule, the “AK-based Prestwick library screening result, E. faecium (fold increase in extracellular AK activity)” value in the test with E. faecium (planktonic E. faecium) is given as 0.9. Besides, in test [2] (planktonic S. aureus), the “AK-based Prestwick library screening result, S. aureus (fold increase in extracellular AK activity)” value was found to be 0.8.
